Assay results reported in ChEMBL document CHEMBL5150054, “Pyrazole-containing pharmaceuticals: target, pharmacological activity, and their SAR studies” (RSC Med Chem, 2022).

Legend:
[1] = target: cGMP-specific 3',5'-cyclic phosphodiesterase (Homo sapiens, UniProt O76074)
Description: Inhibition of PDE5 (unknown origin)

[2] = Dissociation constant, pKa of compound; assay type: physicochemical
[3] = target: Plasma kallikrein (Homo sapiens, UniProt P03952); experiment: Inhibition of plasma kallikrein (unknown origin)
[4] = Inhibition of GABA receptor BZ domain (unknown origin); parameters: species or system Homo sapiens

Sequence of Plasma kallikrein (P03952 20-390 limits assumed): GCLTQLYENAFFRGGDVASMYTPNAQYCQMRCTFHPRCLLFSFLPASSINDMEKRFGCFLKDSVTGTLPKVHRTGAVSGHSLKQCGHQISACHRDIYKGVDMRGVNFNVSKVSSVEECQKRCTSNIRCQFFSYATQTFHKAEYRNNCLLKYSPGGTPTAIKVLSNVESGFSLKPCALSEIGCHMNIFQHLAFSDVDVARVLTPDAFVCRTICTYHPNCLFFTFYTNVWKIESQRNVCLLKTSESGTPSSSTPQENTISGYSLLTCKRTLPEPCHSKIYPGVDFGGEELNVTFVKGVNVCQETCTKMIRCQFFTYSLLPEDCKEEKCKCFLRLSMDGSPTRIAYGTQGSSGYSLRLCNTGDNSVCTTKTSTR
Sequence of Plasma kallikrein (P03952 391-638 limits assumed): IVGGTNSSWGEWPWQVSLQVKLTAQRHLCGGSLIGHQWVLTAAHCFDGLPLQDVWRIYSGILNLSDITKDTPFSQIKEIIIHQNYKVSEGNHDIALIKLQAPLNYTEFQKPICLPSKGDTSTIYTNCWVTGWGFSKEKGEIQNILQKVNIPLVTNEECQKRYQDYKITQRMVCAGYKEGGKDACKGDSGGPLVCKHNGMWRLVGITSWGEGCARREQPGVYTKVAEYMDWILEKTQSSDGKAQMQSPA

CCCOc1ccc(S(=O)(=O)NCCC2CCCN2C)cc1-c1nc2c(CCC)nn(C)c2c(=O)[nH]1 (stereo not given)
IC50 [1]: 8.25 nM

CCCCc1nc(-c2ccccc2Cl)c(C(=O)O)n1Cc1ccc(-c2ccccc2-c2nn[nH]n2)cc1
pKa [2]: 2.5

CCCCc1nn(-c2ccccc2Cl)c(C(=O)O)c1Cc1ccc(-c2ccccc2-c2nn[nH]n2)cc1
pKa [2]: 7.1

N#Cc1cccc([C@@H](NCC2CC2)c2ccc(F)c(NC(=O)c3cc(C(F)(F)F)nn3-c3cccc(CN)c3)c2)c1 [BEROTRALSTAT]
IC50 [3]: 1 nM

CCN(C(C)=O)c1cccc(-c2ccnc3c(C#N)cnn23)c1 [ZALEPLON]
IC50 [4]: 167 nM
